Test results: US20220009918A1, “Chemical Compounds” (GlaxoSmithKline Intellectual Property Development Limited, priority 2018, published 2022)

Target: T1, human H-PGDS (Homo sapiens, UniProt O60760)
T1 construct: Full length human H-PGDS cDNA (Invitrogen Ultimate ORF IOH13026) was amplified by PCR; 6-His (N); TEV protease cleavage site (N); made in house; host or cells: E. coli BL21 (DE3*) for H-PGDS; Sf9 insect cells (baculovirus) for COX-2
Assay: H-PGDS RapidFire high throughput mass spectrometry assay
Assay type: biochemical
Conditions: inhibition of conversion of PGH2 to PGD2 by H-PGDS; mean pIC50; read-out: Potency Range (mean pIC50) (converted)
Method in brief: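 Full-length His-tagged human H-PGDS from E. coli converted PGH2, generated in situ (~10 μM burst) from arachidonic acid by FLAG-tagged human COX-2 (Sf9-expressed). PGD2 and PGF2α (substrate surrogate) were measured by RapidFire SPE-triple quadrupole MS. Percent conversion was calculated, and inhibition was taken as reduced conversion.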

T1 sequence (O60760 whole entry): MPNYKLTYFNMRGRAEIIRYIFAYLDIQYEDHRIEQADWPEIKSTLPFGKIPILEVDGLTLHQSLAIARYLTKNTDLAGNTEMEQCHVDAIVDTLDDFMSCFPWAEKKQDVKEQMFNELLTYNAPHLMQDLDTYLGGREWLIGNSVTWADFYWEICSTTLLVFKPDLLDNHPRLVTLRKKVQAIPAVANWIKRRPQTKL

Compound | IC50 [nM]
O=C(N[C@H]1CCNC1=O)c1cnc(-c2cccc(Br)c2)s1 [Example 37, (S)-2-(3-Bromophenyl)-N-(2-oxopyrrolidin-3-yl)thiazole-5-carboxamide] | 10.2 to 100
COc1cccc(-c2ncc(C(=O)N[C@H]3CCNC3=O)s2)c1 [Example 68, (S)-2-(3-Methoxyphenyl)-N-(2-oxopyrrolidin-3-yl)thiazole-5-carboxamide] | 10.2 to 100
